Legend:
teratogenicity in rats = format: in vivo
Description: (§1) BMS-204352 has an encouraging preclinical safety profile. […] In single- and multiple-dose studies unaffected by drug at doses at least 3×higher than the highest cytotoxic target organ changes following IV administration for 1 month at doses up to 10 mg/kg/day (rats) and for 10 days at doses up to 20 mg/kg/day (dogs).

dopamine D3 receptor = target: T1, dopamine D3 receptor (Homo sapiens, UniProt P35462); test: [3H]spiperone binding, PanLabs screen; conditions: initial test
T1 construct: PanLabs (contract screen)
T1 sequence (P35462 whole entry): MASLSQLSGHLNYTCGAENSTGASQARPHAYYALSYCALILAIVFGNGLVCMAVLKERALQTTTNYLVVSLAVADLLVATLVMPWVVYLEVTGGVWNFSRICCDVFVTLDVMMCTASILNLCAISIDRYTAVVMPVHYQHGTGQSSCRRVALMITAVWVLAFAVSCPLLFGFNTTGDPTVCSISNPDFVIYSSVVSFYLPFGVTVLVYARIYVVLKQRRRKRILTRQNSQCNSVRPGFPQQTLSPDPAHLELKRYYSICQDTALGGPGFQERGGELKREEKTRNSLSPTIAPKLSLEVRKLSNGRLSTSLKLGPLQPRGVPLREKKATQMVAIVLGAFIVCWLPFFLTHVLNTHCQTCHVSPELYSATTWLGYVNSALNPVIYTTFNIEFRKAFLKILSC
From the text: (§2) BMS-204352 was also examined against a binding screen of over 50 receptors and enzyme systems (PanLabs ProfilingScreen® and DiscoveryScreen®). These systems include representatives of most G-protein coupled receptor families, ligand-gated ion channel families, as well as some voltage-gated ion channel binding sites such as the dihydropyridine receptor of L-type Ca^2+ channels. […] The significance of modest inhibition of σ1 ligand binding is unknown.

[1] = cardiovascular safety in anesthetized and conscious dogs; format: in vivo; conditions: doses at least 3× higher than 1 mg/kg IV
Description: as §1

[2] = teratogenicity in rabbits; format: in vivo
Description: as §1

[3] = system: voltage-dependent potassium channels (Kv1.3, Kv1.5, Kv2.1); test: ion channel specificity, Kv currents (electrophysiology); format: cell-based
Description: (§3) To determine the specificity of the effects of the opener compounds, including BMS-204352, on maxi-K potassium channels, the compounds were tested against a representative sample of cloned and native ion channels expressed in Xenopus oocytes and clonal cell lines and were assayed using standard electrophysiological techniques readily known to and practiced by those having skill in the art. These included voltage-dependent potassium channels (Kv1.3, Kv1.5, Kv2.1), Ca^2+-activated chloride (Cl^−) channels (native oocyte channels), the cystic fibrosis transmembrane conductance regulator Cl^− channel (CFTR) and Ca^2+ currents (native GH3 cell Ca^2+ current).

[4] = system: native GH3 cell Ca^2+ current; test: ion channel specificity, native Ca2+ currents; format: cell-based; conditions: at 1 and 10 μM; similar reductions due to current rundown in control cells
Description: as §3

[5] = system: Ca^2+-activated chloride (Cl^−) channels (native oocyte channels); test: ion channel specificity, Cl- currents (electrophysiology); format: cell-based, Xenopus; conditions: native oocyte Ca2+-activated Cl- channels
Description: as §3

σ1 = target: T2, σ1 (Homo sapiens, UniProt Q99720); test: [3H](+)pentazocine binding, PanLabs screen
T2 construct: PanLabs (contract screen)
T2 sequence (Q99720 whole entry): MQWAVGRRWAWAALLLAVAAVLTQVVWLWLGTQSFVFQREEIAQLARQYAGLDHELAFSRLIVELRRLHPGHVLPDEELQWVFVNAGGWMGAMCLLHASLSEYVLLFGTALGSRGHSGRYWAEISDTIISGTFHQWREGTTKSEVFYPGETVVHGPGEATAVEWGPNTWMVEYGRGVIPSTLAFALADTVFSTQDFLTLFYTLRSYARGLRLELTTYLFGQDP
From the text: as §2

[6] = genotoxicity in vitro and in vivo
Description: as §1

cortical infarct volume [7] = test: PUM,PIC,TCC model of acute stroke in Wistar normotensive rat; format: in vivo; conditions: administered 2 hours post-occlusion
Description: Permanent focal occlusion of the proximal middle cerebral artery (MCA) is performed using a modified version of the method originally developed by A. Tamura et al. (1981, J. Cerebr. Blood Flow Metab., 1:53-60). In the permanent unilateral MCA, permanent ipsilateral common carotid arteries (CCA) and transient contralateral CCA (PUM,PIC,TCC model), normotensive male Wistar rats are anesthetized with a combination of ketamine (40 mg/kg, i.m.) and xylazine (4.5 mg/kg, i.m.). After exposure of the left MCA via the subtemporal approach, a 2 mm section of the artery is electrocauterized and severed. Within 5 minutes, both CCA are exposed and occluded. […]
The contralateral temporary CCA occlusion reduces collateral flow sufficiently to allow for consistent, large cortical infarcts (S. Brint et al., 1988, Cerebr. Blood Flow Metab., 8:474-485). […] Animals are maintained throughout at 37° C. and monitored by means of a rectal probe. At 24 hours after the occlusion, animals are sacrificed and brains are removed and evaluated by triphenyltetrazolium chloride (TTC) staining to determine the area of infarct. Brain slices are photographed and infarct volumes determined with the assistance of computerized image analysis. Data are analyzed using ANOVAs and appropriate post-hoc tests (Dunnett's).

[8] = brain penetrance and pharmacokinetics after IV administration in rat; format: in vivo
From the text: The ischemic penumbra is an area of low vascular perfusion. For a neuroprotective agent to reach ischemic neurons at therapeutic doses following the onset of a stroke, it should enter the brain at very high levels.

[9] = cardiovascular safety in rats; format: in vivo; conditions: doses at least 3× higher than the highest neuroprotective dose of 1 mg/kg IV
Description: as §1

cortical infarct volume [10] = test: permanent MCA occlusion in SHR rat, MRI; format: in vivo, spontaneously hypertensive rats (SHR); conditions: 0.3 mg/kg bolus IV 2 hours after occlusion onset; at 5.5 and 24 hours after occlusion
cortical infarct volume [11] = test: permanent MCA occlusion in SHR rat; format: in vivo, spontaneously hypertensive rats (SHR); conditions: administered 2 hours following occlusion onset, doses neuroprotective at earlier time points
[12] = target: T3, human brain maxi-K channel α-subunit (hSlo) (Homo sapiens, UniProt Q12791); test: whole-cell patch-clamp of hSlo-mediated outward currents in transfected HEK-293 cells; format: cell-based; conditions: for effect on hSlo-mediated current amplitudes: BMS-A at 1 μM
T3 construct: expressed in transfected cells; host or cells: HEK-293, stably transfected (pcDNA3, G418 selection)
T3 sequence (Q12791 1-1178 isoform Q12791-5): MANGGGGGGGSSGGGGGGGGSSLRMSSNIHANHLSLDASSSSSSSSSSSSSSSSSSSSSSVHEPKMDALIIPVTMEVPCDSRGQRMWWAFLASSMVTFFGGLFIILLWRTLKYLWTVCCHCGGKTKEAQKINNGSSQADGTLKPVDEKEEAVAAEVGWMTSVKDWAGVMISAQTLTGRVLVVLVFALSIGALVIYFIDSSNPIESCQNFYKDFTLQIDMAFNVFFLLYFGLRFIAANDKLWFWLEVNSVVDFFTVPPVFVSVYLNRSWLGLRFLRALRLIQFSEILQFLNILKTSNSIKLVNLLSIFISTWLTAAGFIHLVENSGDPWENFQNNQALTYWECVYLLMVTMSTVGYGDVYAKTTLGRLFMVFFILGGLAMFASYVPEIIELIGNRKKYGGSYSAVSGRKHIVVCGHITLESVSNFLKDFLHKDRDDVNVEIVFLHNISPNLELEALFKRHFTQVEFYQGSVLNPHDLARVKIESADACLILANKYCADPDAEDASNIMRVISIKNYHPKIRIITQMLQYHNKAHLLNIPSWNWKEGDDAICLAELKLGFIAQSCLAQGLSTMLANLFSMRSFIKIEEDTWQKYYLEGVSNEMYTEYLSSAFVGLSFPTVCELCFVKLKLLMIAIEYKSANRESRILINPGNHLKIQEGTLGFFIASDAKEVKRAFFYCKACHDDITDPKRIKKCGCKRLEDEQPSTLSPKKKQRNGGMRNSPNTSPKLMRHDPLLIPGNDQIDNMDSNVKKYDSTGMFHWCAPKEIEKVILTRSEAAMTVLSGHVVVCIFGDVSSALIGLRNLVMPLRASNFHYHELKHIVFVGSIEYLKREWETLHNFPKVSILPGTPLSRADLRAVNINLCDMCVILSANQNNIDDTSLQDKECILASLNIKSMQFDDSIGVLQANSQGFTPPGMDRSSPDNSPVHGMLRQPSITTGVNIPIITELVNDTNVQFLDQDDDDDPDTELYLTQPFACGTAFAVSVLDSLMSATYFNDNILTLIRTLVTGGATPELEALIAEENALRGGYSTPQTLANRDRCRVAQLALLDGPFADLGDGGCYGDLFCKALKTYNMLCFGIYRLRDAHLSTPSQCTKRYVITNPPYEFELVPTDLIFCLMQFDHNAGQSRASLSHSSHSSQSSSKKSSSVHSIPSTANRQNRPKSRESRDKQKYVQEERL
Description: HEK-293 cells were transfected with 1-2 μg of pcDNA3 expression plasmid containing hSlo α-subunit cDNA (S. I. Dworetzky et al., 1994, Brain Res. Mol. Brain Res., 27:189-193) using lipofectamine (Gibco) according to the manufacturer's protocol. Cells stably transfected with hSlo were selected in medium supplemented with 0.5 mg/ml Geneticin (G418; Sigma). Transfected HEK-293 cells were grown in Minimum Essential Medium (MEM; Gibco) supplemented with 10% fetal calf serum and G418 at 37° C. in a humidified atmosphere of 5% CO2 and 95% […]. Cells were plated on fibronectin-coated glass cover slips in 35 mm culture dishes.
Outward K^+-mediated currents were examined using standard whole-cell patch-clamp techniques (P. O. Hamill et al., 1981, Pflugers Arch., 391:85-100). Records were filtered at 2 kHz prior to digitization at 10 or 20 kHz. The bathing solution contained the following components: NaCl, 145 mM; KCl, 3 mM; CaCl2, 2.5 mM; MgCl2 1 mM; HEPES, 10 mM; pH 7.4. The recording pipettes were pulled from thick-walled borosilicate glass (2-4 Mω in bathing solution), fire polished and filled with a solution containing: KCl 140 mM; MOPS, 20 mM; EGTA, 1.0 mM; pH 7.2, with CaCl2 adjusted to produce the required [Ca^2+]free (determined using the EQCAL program (Biosoft, Cambridge) incorporating the methods of A. Fabiato and F. Fabiato, 1995, J. Physiol., Paris. 75:463-505.
Stimulus generation and data acquisition were controlled by either an Axopatch 200 amplifier or an EPC 9 amplifier, and the Pulse program suite. Data were stored and analyzed off-line. The cell holding potential was −100 mV for experiments with 2.5 μM [Ca^2+]i, and −80 or […] for the remaining Ca^2+ concentrations (1 μM, 250 nM and 50 nM). A series of 10 mV depolarizing voltage steps (100 to 200 ms) appropriate to the [Ca^2+]i was applied to evoke a family of outward currents. Series resistance was ≦6Mω before 80% compensation. Currents were measured at steady state near the end of the voltage pulse.
Using the whole-cell voltage-clamp technique (R. Penner, 1995, “A Practical Guide to Patch Clamping”; In: Single Channel Recording, 2nd Edition, (Eds. B. Sakmann and E. Neher), Plenum Press, New York, pp. 3-30), hSlo-mediated outward currents were recorded with pipettes containing different concentrations of Ca^2+ (i.e., [Ca^2+]free=50 nM, 1 μM or 2.5 μM). Clamped cells were exposed to 5 μM of the fluoro-oxindole opener compound BMS-204352, or the chloro-oxindole opener compound BMS-225113, as described in Examples 1.
For outside-out and whole cell patch analyses, the solutions used are normal extracellular Na^+ solution containing (in mM): NaCl, 145; KCl, 3; CaCl2, 2.5; MgCl2, 1; HEPES, 10; ±glucose, 10; pH 7.4. Intracellular and extracellular medium for inside-out patches, or pipette solution for whole-cell patch, comprise (in mM): KCl, 140; MOPS, 20; EGTA, 1.0; pH 7.2 CaCl2 adjusted to produce the required [Ca^2+]free (determined using the EQCAL program; Biosoft, Cambridge). The cell holding potential for whole-cell recordings is −80 or −60 mV and depolarizing voltage steps appropriate to the internal Ca^2+ concentration are applied (at high intracellular Ca^2+ seals become unstable at higher clamp voltages, and are stable at lower voltages for shorter periods).
This example describes experiments that were conducted to determine the effects of intracellular Ca^2+ concentration ([Ca^2+]i) and the use of the BMS-A compound (see U.S. Pat. No. 5,869,509, Example 82), versus a known benzimidazolone compound called NS-1619 [D. Strbaek et al., 1996, Neuropharmacology, 35:903-914 and M. McKay et al., 1997, J. Neurophysiology, 71:1873], on whole-cell currents in HEK-293 cells genetically engineered to express a human brain hSlo α-subunit. For these experiments, the cell holding potential was either −80 or −100 mV and a series of 10 mV depolarizing voltage steps appropriate to the [Ca^2+]i, was applied. […]

COc1ccc(Cl)cc1[C@]1(F)C(=O)Nc2cc(C(F)(F)F)ccc21 [BMS-204352, (3S)-(+)-(5-Chloro-2-methoxyphenyl)-1,3-dihydro-3-fluoro-6-(trifluoromethyl)-2H-indol-2-one]
teratogenicity (teratogenicity in rats): not teratogenic | inhibition at 10 µM (dopamine D3 receptor): 74% | heart rate and mean arterial blood pressure [1]: unaffected | teratogenicity [2]: not teratogenic | effect on Kv currents [3]: no significant effect | reduction of native Ca2+ current [4]: 15-16% | effect on Cl- currents [5]: no significant effect | inhibition at 10 µM (σ1): 54% | genotoxicity [6]: not genotoxic | maximum reduction of cortical infarct volume (cortical infarct volume [7]): 41% | typical reductions of cortical infarct volume (cortical infarct volume [7]): 20-30% | Tmax ([8]; 5 mg/kg, rat brain, IV administration): 15 min | Cmax ([8]; brain, rat, 5 mg/kg IV bolus dose): > 10000 ng/g | brain half life ([8]; rat, IV): 114 min | plasma half life ([8]; rat, IV): 96 min | ratio of brain to plasma of the total compound detected ([8]; rat, over an 8 hour period): 9.6 | heart rate and mean arterial blood pressure [9]: unaffected

COc1ccc(Cl)cc1C1(F)C(=O)Nc2cc(C(F)(F)F)ccc21 (racemic) [Compound 1, (±)-(5-Chloro-2-methoxyphenyl)-1,3-dihydro-3-fluoro-6-(trifluoromethyl)-2H-indol-2-one]
cortical infarct volume (MRI) (cortical infarct volume [10]): significant reduction in cortical infarct volume

C[C@]12N[C@H](Cc3ccccc31)c1ccccc12 [MK-801]
neuroprotection (cortical infarct volume [11]): ineffective

O=c1[nH]c2cc(C(F)(F)F)ccc2n1-c1cc(C(F)(F)F)ccc1O [NS-1619, reference compound]
effect on hSlo-mediated current amplitudes ([12]; [Ca2+]i 50 nM): increasing the hS/omediated current amplitudes at upper voltages | effect on hSlo-mediated current amplitudes ([12]; [Ca2+]i 2.5 μM): increasing the hS/omediated current amplitudes at upper voltages

O=c1oc(-c2ccc(C(F)(F)F)cc2)nn1Cc1cc(Cl)ccc1O [BMS-A, 3-[(5-chloro-2-hydroxyphenyl)methyl]-5-[4-(trifluoromethyl)phenyl]-1,3,4-oxadiazol-2-(3H)-one]
effect on hSlo-mediated current amplitudes ([12]; [Ca2+]i 50 nM): decreased current amplitudes over a wide range of voltages | effect on hSlo-mediated current amplitudes ([12]; [Ca2+]i 2.5 μM): increased hSlo-mediated current amplitudes at the highest voltages

CCc1cccc(N(C)C(N)=Nc2cccc3ccccc23)c1 [CNS-1102]
neuroprotection (cortical infarct volume [11]): ineffective

COc1ccc(Cl)cc1C1(Cl)C(=O)Nc2cc(C(F)(F)F)ccc21 (racemic) [BMS-225113, (±)-(5-chloro-2-methoxyphenyl)1,3-dihydro-3-chloro-6-(trifluoromethyl)-2H-indol-2-one]
effect on hSlo-mediated currents ([12]; compound 5 μM, [Ca2+]i 50 nM, 250 nM, 1 μM or 2.5 μM): significant increases only at the highest concentrations of Ca^2+ (1 μM and 2.5 μM) | effect on maxi-K currents ([12]; compound 10 μM, [Ca2+]i 250 nM, 1.0 μM, 2.5 μM (FIG. 3A)): greater increases in maxi-K currents under conditions of higher [Ca^2+]i

Source: patent US20020045566A1, “Selective maxi-K potassium channel openers functional under conditions of high intracellular calcium concentration, methods and uses thereof” (priority 2000, published 2002)
